Structures are written as SMILES. Converted amounts (≈) assume the structure as drawn.

For one series, the system named is Anas platyrhynchos. Particulars: oral, mortality.
The next series concerns Apis mellifera. Particulars: acute; duration: 48 hours; dermal; mortality.
For a further series, the system named is Bibionidae. Particulars: chronic/long-term; duration: 28 days.
The test system of the next series is Canidae. The following applies: oral, Dog Other, clinical signs.
For the next series, the system named is Chrysoperla externa. Particulars: not reported; mortality.
The subject of the next series is Coturnix japonica. Particulars: acute, oral, mortality.
A further series relates to Daphnia magna. The following applies: acute; duration: 48 hours; mortality.
A further series has as its system Hypoaspis aculeifer. The following applies: chronic/long-term, duration: 14 days.
Another series deals with Lepomis macrochirus. The following applies: acute; duration: 96 hours; mortality.
The subject of a further series is Tagia sp. The following applies: acute; duration: 14 days; mortality.

Take `CCOC(=O)CCN(SN(C)C(=O)Oc1cccc2c1OC(C)(C)C2)C(C)C` [Benfuracarb]: the LD50 with Anas platyrhynchos (acute, unspecified) is 19.8 mg/kg-day; in the series on Apis mellifera, 0.19 µg/piece; in the series with Chrysoperla externa, 5.2 g/ha; with Coturnix japonica (F), 39.9 mg/kg-day; with Coturnix japonica (M), 48.3 mg/kg-day; in the series on Rattus norvegicus (acute, oral, mortality), 205 mg/kg-day. The LC50 in the series with Anas platyrhynchos (short-term, feed) is 15 mg/kg-day; in the series on Colinus virginianus (acute, oral, diet, mortality), 179 mg/kg-day; in the series with Daphnia magna, 0.0099 µg/mL (≈ 0.0241 µM); with Lepomis macrochirus it was 0.017 µg/mL (≈ 0.0414 µM); in the series with Tagia sp., 58 mg/kg. In addition, the results for the NOEC in the series on Bibionidae and in the series on Tagia sp. were 0.001 mg/L and less than 10 mg/kg, respectively. Moreover, the NOAEL with Canidae (chronic, duration: 6 months) turned out to be 1 mg/kg-day; in the series with Canidae (chronic, duration: 24 months), 1 mg/kg-day; with Canidae (subchronic, duration: 13 weeks) it was 1 mg/kg-day; with Rattus norvegicus (reproduction developmental, reproduction), 1.2 mg/kg-day; in the series with Rattus norvegicus (short-term, duration: 28 days, clinical signs), 1.8 mg/kg-day. This compound displayed an NOEL in the series on Colinus virginianus (reproduction developmental) of 8.93 mg/kg-day. Also, the LEL with Hypoaspis aculeifer (mortality) and in the series with Hypoaspis aculeifer (reproduction) was 1000 g/ha throughout.

Broadly, the NOAEL is the highest tested level that showed no adverse finding.
